Here are results for 11 molecules from patent US5434246A, “Parathyroid hormone derivatives” (Takeda Chemical Industries, Ltd., priority 1992, dated 1995).

Square brackets hold non-standard residues; d marks the D form. Ends that are not written are not given here. Peptide text beside a SMILES is read from it. hCit = NC(=O)NCCCC[C@H](N)C(=O)O; Orn = NCCC[C@H](N)C(=O)O

This test deals with T1, PTH receptor (Mus musculus, UniProt P41593).
T1 construct: a mouse cranial bone-derived osteoblast-like cell strain, MC3T3-EI cells; endogenous in cells; host or cells: MC3T3-E1 mouse osteoblast-like cells
T1 sequence (P41593 27-591): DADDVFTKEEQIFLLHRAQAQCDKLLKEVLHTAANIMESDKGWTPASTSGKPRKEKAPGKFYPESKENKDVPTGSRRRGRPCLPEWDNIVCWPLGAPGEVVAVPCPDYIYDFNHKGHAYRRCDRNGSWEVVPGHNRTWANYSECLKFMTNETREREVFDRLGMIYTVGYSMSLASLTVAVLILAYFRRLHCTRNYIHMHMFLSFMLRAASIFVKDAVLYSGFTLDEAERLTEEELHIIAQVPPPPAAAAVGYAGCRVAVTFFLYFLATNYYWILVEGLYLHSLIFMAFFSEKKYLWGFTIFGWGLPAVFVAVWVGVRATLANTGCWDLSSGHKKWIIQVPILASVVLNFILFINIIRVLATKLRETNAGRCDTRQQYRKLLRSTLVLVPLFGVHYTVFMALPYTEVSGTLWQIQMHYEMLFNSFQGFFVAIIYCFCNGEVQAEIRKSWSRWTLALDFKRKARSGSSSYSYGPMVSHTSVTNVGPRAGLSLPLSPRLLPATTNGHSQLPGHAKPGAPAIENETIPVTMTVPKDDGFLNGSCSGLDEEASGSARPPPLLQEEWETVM
As to the kind of experiment: cAMP production in MC3T3-EI osteoblast-like cells (biological activity of PTH(1-34) derivatives). The test is classed as cell-based. Particulars: 0.01-100 nM derivative, room temperature 30 minutes, hPTH(1-34) standard = 1.00. How it is done: The biological activity of the PTH (1-34) derivatives was evaluated by a modified version of the method reported by Shigeno et al. in The Journal of Biological Chemistry 263, 18369-18377 (1988). A culture solution (Hank's solution, containing 20 mM N-2-hydroxyethylpiperazine-N'-2-ethanesulfonic acid-(HEPES), 0.1% bovine serum albumin and 0.5 mM isobutylmethyl-xanthine) containing a 0.01, 0.1, 1, 10 or 100 nM derivative was added in an amount of 100 μl to a mouse cranial bone-derived osteoblast-like cell strain, MC3T3-EI cells, cultivated on a 96-well multiplate (Nunclon, Nunc), followed by reaction at room temperature for 30 minutes. After addition of 100 μl of 0.2N hydrochloric acid, the mixture was immersed in boiling water for 2.5 minutes, and cyclic adenosine monophosphate (cAMP) produced by a PTH receptor was extracted from the cells. The total cAMP in the culture solution and the cells was assayed using a commercial radioimmunoassay kit (cyclic AMP [^125 I] kit "Du Pont-Daiichi", Daiichi Kagaku Yakuhin).
For orientation: Cyclic AMP is a second messenger, typically raised through Gs and lowered through Gi signalling.
Take `CC[C@H](C)[C@H](NC(=O)[C@H](CCC(=O)O)NC(=O)[C@H](CO)NC(=O)[C@@H](NC(=O)[C@@H](N)CO)C(C)C)C(=O)N[C@@H](CCC(N)=O)C(=O)N[C@@H](CC(C)C)C(=O)N[C@@H](CCSC)C(=O)N[C@@H](Cc1c[nH]cn1)C(=O)N[C@@H](CC(N)=O)C(=O)N[C@@H](CC(C)C)C(=O)NCC(=O)N[C@@H](CCCCN)C(=O)N[C@@H](Cc1c[nH]cn1)C(=O)N[C@@H](CC(C)C)C(=O)N[C@H](CCCCN)C(=O)N[C@@H](CO)C(=O)N[C@@H](CCSC)C(=O)N[C@@H](CCC(=O)O)C(=O)N[C@@H](CCCNC(=N)N)C(=O)N[C@H](C(=O)N[C@@H](CCC(=O)O)C(=O)N[C@@H](Cc1c[nH]c2ccccc12)C(=O)N[C@@H](CC(C)C)C(=O)N[C@@H](CCCNC(=N)N)C(=O)N[C@@H](CCCCN)C(=O)N[C@@H](CCCCN)C(=O)N[C@@H](CC(C)C)C(=O)N[C@@H](CCC(N)=O)C(=O)N[C@@H](CC(=O)O)C(=O)N[C@H](C(=O)N[C@@H](Cc1c[nH]cn1)C(=O)N[C@@H](CC(N)=O)C(=O)N[C@@H](Cc1ccccc1)C(=O)O)C(C)C)C(C)C` [[D-Lys^16]hPTH(1-34)]: the “Biological Activity, Represented by Relative Activity to hPTH(1-34)” value came out at 0.86. On to “SVSEIQLMHNLGKHKKKMERVEWLRKHLQDVHNF [[Lys^15,16,17,His^27]hPTH (1-34), [Lys^15,16,17,His^27]hPTH(1-34)]”, for which the “Biological Activity, Represented by Relative Activity to hPTH(1-34)” value is listed as 7.47. For the molecule `CC[C@H](C)[C@H](NC(=O)[C@H](CCC(=O)O)NC(=O)[C@H](CO)NC(=O)[C@@H](NC(=O)[C@@H](N)CO)C(C)C)C(=O)N[C@@H](CCC(N)=O)C(=O)N[C@@H](CC(C)C)C(=O)N[C@@H](CCSC)C(=O)N[C@@H](Cc1c[nH]cn1)C(=O)N[C@@H](CC(N)=O)C(=O)N[C@@H](CC(C)C)C(=O)NCC(=O)N[C@@H](CCCCN)C(=O)N[C@@H](Cc1c[nH]cn1)C(=O)N[C@@H](CC(C)C)C(=O)N[C@@H](CCCCNC(N)=O)C(=O)N[C@@H](CO)C(=O)N[C@@H](CCSC)C(=O)N[C@@H](CCC(=O)O)C(=O)N[C@@H](CCCNC(=N)N)C(=O)N[C@H](C(=O)N[C@@H](CCC(=O)O)C(=O)N[C@@H](Cc1c[nH]c2ccccc12)C(=O)N[C@@H](CC(C)C)C(=O)N[C@@H](CCCNC(=N)N)C(=O)N[C@@H](CCCCN)C(=O)N[C@@H](CCC(N)=O)C(=O)N[C@@H](CC(C)C)C(=O)N[C@@H](CCC(N)=O)C(=O)N[C@@H](CC(=O)O)C(=O)N[C@H](C(=O)N[C@@H](Cc1c[nH]cn1)C(=O)N[C@@H](CC(N)=O)C(=O)N[C@@H](Cc1ccccc1)C(=O)O)C(C)C)C(C)C` [[Hci^16,Gln^27]hPTH(1-34)] (H-SVSEIQLMHNLGKHL[hCit]SMERVEWLRKQLQDVHNF-OH), the “Biological Activity, Represented by Relative Activity to hPTH(1-34)” value is 1.54. In the case of `CC[C@H](C)[C@H](NC(=O)[C@H](CCC(=O)O)NC(=O)[C@@H](C)NC(=O)[C@@H](NC(=O)[C@@H](N)CO)C(C)C)C(=O)N[C@@H](CCC(N)=O)C(=O)N[C@@H](CC(C)C)C(=O)N[C@@H](CCSC)C(=O)N[C@@H](Cc1c[nH]cn1)C(=O)N[C@@H](CC(N)=O)C(=O)N[C@@H](CC(C)C)C(=O)NCC(=O)N[C@@H](CCCCN)C(=O)N[C@@H](Cc1c[nH]cn1)C(=O)N[C@@H](CC(C)C)C(=O)N[C@@H](CC(N)=O)C(=O)N[C@@H](CO)C(=O)N[C@@H](CCSC)C(=O)N[C@@H](CCC(=O)O)C(=O)N[C@@H](CCCNC(=N)N)C(=O)N[C@H](C(=O)N[C@@H](CCC(=O)O)C(=O)N[C@@H](Cc1c[nH]c2ccccc12)C(=O)N[C@@H](CC(C)C)C(=O)N[C@@H](CCCNC(=N)N)C(=O)N[C@@H](CCCCN)C(=O)N[C@@H](CCCCN)C(=O)N[C@@H](CC(C)C)C(=O)N[C@@H](CCC(N)=O)C(=O)N[C@@H](CC(=O)O)C(=O)N[C@H](C(=O)N[C@@H](Cc1c[nH]cn1)C(=O)N[C@@H](CC(N)=O)C(=O)N[C@@H](Cc1ccccc1)C(=O)O)C(C)C)C(C)C` [[D-Ala^3]hPTH(1-34)], the “Biological Activity, Represented by Relative Activity to hPTH(1-34)” value worked out at 2.17. Regarding “SVSEIQLMHNLGKHKKSMERVEWLRKHLQDVHNF [[Lys^15,16,His^27]hPTH(1-34)]”, the “Biological Activity, Represented by Relative Activity to hPTH(1-34)” value was 1.49. Regarding `CC[C@H](C)[C@H](NC(=O)[C@H](CCC(=O)O)NC(=O)[C@H](CO)NC(=O)[C@@H](NC(=O)[C@@H](N)CO)C(C)C)C(=O)N[C@@H](CCC(N)=O)C(=O)N[C@@H](CC(C)C)C(=O)N[C@@H](CCSC)C(=O)N[C@@H](Cc1c[nH]cn1)C(=O)N[C@@H](CC(N)=O)C(=O)N[C@@H](CC(C)C)C(=O)NCC(=O)N[C@@H](CCCCN)C(=O)N[C@@H](Cc1c[nH]cn1)C(=O)N[C@@H](CC(C)C)C(=O)N[C@H](C(=O)N[C@@H](CO)C(=O)N[C@@H](CCSC)C(=O)N[C@@H](CCC(=O)O)C(=O)N[C@@H](CCCNC(=N)N)C(=O)N[C@H](C(=O)N[C@@H](CCC(=O)O)C(=O)N[C@@H](Cc1c[nH]c2ccccc12)C(=O)N[C@@H](CC(C)C)C(=O)N[C@@H](CCCNC(=N)N)C(=O)N[C@@H](CCCCN)C(=O)N[C@@H](CCCCN)C(=O)N[C@@H](CC(C)C)C(=O)N[C@@H](CCC(N)=O)C(=O)N[C@@H](CC(=O)O)C(=O)N[C@H](C(=O)N[C@@H](Cc1c[nH]cn1)C(=O)N[C@@H](CC(N)=O)C(=O)N[C@@H](Cc1ccccc1)C(=O)O)C(C)C)C(C)C)[C@@H](C)O` [[Thr^16]hPTH(1-34)], the “Biological Activity, Represented by Relative Activity to hPTH(1-34)” value came to 1.74. To “SVSEIQLMHNLGKKKKKMERVEWLRKKLQDVHNF [[Lys^14,15,16,17]hPTH (1-34), [Lys^14,15,16,17]hPTH(1-34)]” belongs 6.39; to “SVSEIQLMHNLGKHLNSMERVEWLRRRLQDVHNF [[Arg^26,27]hPTH (1-34), [Arg^26,27]hPTH(1-34)]”, 0.98. On to “SVSEIQLMHNLGKHLNSMERVEWLRQQLQDVHNF [[Gln^26,27]hPTH(1-34)]”, for which the “Biological Activity, Represented by Relative Activity to hPTH(1-34)” value is given as 1.19. Turning to `CC[C@H](C)[C@H](NC(=O)[C@H](CCC(=O)O)NC(=O)[C@H](CO)NC(=O)[C@@H](NC(=O)[C@@H](N)CO)C(C)C)C(=O)N[C@@H](CCC(N)=O)C(=O)N[C@@H](CC(C)C)C(=O)N[C@@H](CCSC)C(=O)N[C@@H](Cc1c[nH]cn1)C(=O)N[C@@H](CC(N)=O)C(=O)N[C@@H](CC(C)C)C(=O)NCC(=O)N[C@@H](CCCCN)C(=O)N[C@@H](Cc1c[nH]cn1)C(=O)N[C@@H](CC(C)C)C(=O)N[C@@H](CCCN)C(=O)N[C@@H](CO)C(=O)N[C@@H](CCSC)C(=O)N[C@@H](CCC(=O)O)C(=O)N[C@@H](CCCNC(=N)N)C(=O)N[C@H](C(=O)N[C@@H](CCC(=O)O)C(=O)N[C@@H](Cc1c[nH]c2ccccc12)C(=O)N[C@@H](CC(C)C)C(=O)N[C@@H](CCCNC(=N)N)C(=O)N[C@@H](CCCCN)C(=O)N[C@@H](CCC(N)=O)C(=O)N[C@@H](CC(C)C)C(=O)N[C@@H](CCC(N)=O)C(=O)N[C@@H](CC(=O)O)C(=O)N[C@H](C(=O)N[C@@H](Cc1c[nH]cn1)C(=O)N[C@@H](CC(N)=O)C(=O)N[C@@H](Cc1ccccc1)C(=O)O)C(C)C)C(C)C` [[Orn^16,Gln^27]hPTH(1-34), [Orn^16,Gln^27]hPTH(1-45)] (H-SVSEIQLMHNLGKHL[Orn]SMERVEWLRKQLQDVHNF-OH), the “Biological Activity, Represented by Relative Activity to hPTH(1-34)” value was found to be 1.82. For “SVSEIQLMHNLGKHKKKMERVEWLRKKLQDVHNF [[Lys^15,16,17]hPTH (1-34), [Lys^15,16,17]hPTH(1-34)]”, the “Biological Activity, Represented by Relative Activity to hPTH(1-34)” value was determined as 7.62.
